Structures are written as SMILES.

For orientation: melting point means the temperature of the solid-liquid transition. The compound `CCC[C@H](NC(=O)CC(C)(C)C)C(=O)Nc1ncc(-c2ccccc2COC(C)C)s1` [compound 13, (2S)-2-[(3,3-dimethylbutanoyl)amino]-N-{5-[2-(isopropoxymethyl)phenyl]-1,3-thiazol-2-yl}pentanamide] yielded a melting point of 77 °C.
For `CCC[C@H](NC(=O)[C@@H](O)C(C)(C)C)C(=O)Nc1ncc(-c2ccc(OC)cc2COc2ccccc2)s1` [compound 18, (2S)-2-{[(2S)-2-hydroxy-3,3-dimethylbutanoyl]amino}-N-{5-[4-methoxy-2-(phenoxymethyl)phenyl]-1,3-thiazol-2-yl}pentanamide] the value was 117 °C; for `CCC[C@H](NC(=O)[C@@H](O)C(C)(C)C)C(=O)Nc1ncc(-c2ccc(C)cc2COc2ccccc2)s1` [compound 59, (2S)-2-{[(2S)-2-hydroxy-3,3-dimethylbutanoyl]amino}-N-{5-[4methyl-2-(phenoxymethyl)phenyl]-1,3-thiazol-2-yl}pentanamide], 92.6 °C.
For `CCC[C@H](NC(=O)C(O)C(C)(C)C)C(=O)Nc1ncc(-c2ccccc2COc2ccccc2OC)s1` (stereo partly drawn) [compound 38, (2S)-2-[(2-hydroxy-3,3-dimethylbutanoyl)amino]-N-(5-{2-[(2-methoxyphenoxy)methyl]phenyl}-1,3-thiazol-2-yl}pentanamide] the value was 85 °C; for `CCC[C@H](NC(=O)[C@@H](O)C(C)C)C(=O)Nc1ncc(-c2cc(F)ccc2COc2ccccc2)s1` [compound 56, (2S)—N-{5-[5-fluoro-2-(phenoxymethyl)phenyl]-1,3-thiazol-2-yl}-2-{[(2S)-2-hydroxy-3-methylbutanoyl]amino}pentanamide], 61.4 °C.
Under `CCC[C@H](NC(=O)[C@@H](O)C(C)(C)C)C(=O)Nc1ncc(-c2ccccc2COc2cc(C)c(C)cc2Cl)s1` [compound 71, (2S)—N-(5-{2-[(2-chloro-4,5-dimethylphenoxy)methyl]phenyl}-1,3-thiazol-2-yl)-2-{[(2S)-2-hydroxy-3,3-dimethylbutanoyl]amino}pentanamide] stands 85 °C; under `CCC[C@H](NC(=O)C(O)CC(C)C)C(=O)Nc1ncc(-c2ccccc2COC2CCCCC2)s1` (stereo partly drawn) [Compound No. 4, N-((1S)-1-{[(5-{2-[(cyclohexyloxy)methyl]phenyl}-1,3-thiazol-2-yl)amino]carbonyl}butyl)-2-hydroxy-4-methylpentanamide], 85 °C; under `CCC[C@H](NC(=O)[C@@H](O)C(C)(C)C)C(=O)Nc1ncc(-c2ccccc2COc2c(F)cccc2F)s1` [compound 46, (2S)—N-(5-{2-[(2,6-difluorophenoxy)methyl]phenyl}-1,3-thiazol-2-yl)-2-{[(2S)-2-hydroxy-3,3-dimethylbutanoyl]amino}pentanamide], 63.5 °C.
As for `CCC[C@H](NC(=O)[C@@H](O)C(C)(C)C)C(=O)Nc1ncc(-c2ccccc2COc2ccc(C)cc2C)s1` [compound 32, (2S)—N-(5-{2-[(2,4-dimethylphenoxy)methyl]phenyl}-1,3-thiazol-2-yl)-2-{[(2S)-2-hydroxy-3,3-dimethylbutanoyl]amino}pentanamide], the melting point came to 86 °C.
On to `CCC[C@H](NC(=O)[C@@H](O)C(C)(C)C)C(=O)Nc1ncc(-c2ccccc2COc2cccc(F)c2)s1` [compound 62, (2S)—N-(5-{2-[(3-fluorophenoxy)methyl]phenyl}-1,3-thiazol-2-yl)-2-{[(2S)-2-hydroxy-3,3-dimethylbutanoyl]amino}pentanamide], for which the melting point worked out at 160.2 °C.
Under `CCC[C@H](NC(=O)[C@@H](O)C(C)(C)C)C(=O)Nc1ncc(-c2ccccc2COC2CCCCC2)s1` [compound 57, (2S)—N-(5-{2-[(cyclohexyloxy)methyl]phenyl}-1,3-thiazol-2-yl)-2-{[(2S)-2-hydroxy-3,3-dimethylbutanoyl]amino}pentanamide] stands 88 °C; under `CCC[C@H](NC(=O)[C@@H](O)C(C)(C)C)C(=O)Nc1nc(C)c(-c2ccccc2COc2ccccc2)s1` [compound 34, (2S)-2-{[(2S)-2-hydroxy-3,3-dimethylbutanoyl]amino}-N-{4-methyl-5-[2-(phenoxymethyl)phenyl]-1,3-thiazol-2-yl}pentanamide], 99 °C; under `CCC[C@H](NC(=O)[C@@H](O)C(CC)CC)C(=O)Nc1ncc(-c2ccccc2COc2ccccc2)s1` [Compound No. 43, (2S)-3-ethyl-2-hydroxy-N-{(1S)-1-[({5-[2-(phenoxymethyl)phenyl]-1,3-thiazol-2-yl}amino)carbonyl]butyl}pentanamide], 122.5 °C.
Compound `CCC[C@H](NC(=O)[C@@H](O)C(C)(C)C)C(=O)Nc1ncc(-c2ccccc2COc2ccncc2)s1` [Compound No. 70, (2S)-2-{[(2S)-2-hydroxy-3,3-dimethylbutanoyl]amino}-N-(5-{2-[(4-pyridinyloxy)methyl]phenyl}-1,3-thiazol-2-yl)pentanamide] returned a melting point of 112.7 °C.
Under `CCC[C@H](NC(=O)[C@@H](O)C(C)(C)C)C(=O)Nc1ncc(-c2ccccc2COc2cc(C)ccc2C)s1` [compound 33, (2S)—N-(5-{2-[(2,5-dimethylphenoxy)methyl]phenyl}-1,3-thiazol-2-yl)-2{[(2S)-2-hydroxy-3,3-dimethylbutanoyl]amino}pentanamide] stands 87 °C; under `CCC[C@H](NC(=O)[C@@H](O)C(C)(C)C)C(=O)Nc1ncc(-c2ccc(Cl)cc2COc2ccccc2)s1` [compound 47, (2S)—N-{5-[4-chloro-2-(phenoxymethyl)phenyl]-1,3-thiazol-2-yl}-2-{[(2S)-2-hydroxy-3,3-dimethylbutanoyl]amino}pentanamide], 93.5 °C; under `CCC[C@H](NC(=O)[C@@H](O)C(C)(C)C)C(=O)Nc1ncc(-c2ccc(OCC)cc2COc2ccccc2)s1` [compound 52, (2S)—N-{5-[4-ethoxy-2-(phenoxymethyl)phenyl]-1,3-thiazol-2-yl}-2-{[(2S)-2-hydroxy-3,3-dimethylbutanoyl]amino}pentanamide], 81 °C.
Under `CCC[C@H](NC(=O)[C@@H](O)C(C)(C)C)C(=O)Nc1ncc(-c2cc(Cl)ccc2COc2ccccc2)s1` [compound 55, (2S)—N-{5-[5-chloro-2-(phenoxymethyl)phenyl]-1,3-thiazol-2-yl}-2-{[(2S)-2-hydroxy-3,3-dimethylbutanoyl]amino}pentanamide] stands 120.7 °C; under `C[C@H](NC(=O)[C@@H](O)C(C)(C)C)C(=O)Nc1ncc(-c2ccccc2COC2CCCCC2)s1` [compound 66, (2S)—N-{(1S)-2-[(5-{2-[(cyclohexyloxy)methyl]phenyl}-1,3-thiazol-2-yl)amino]-1-methyl-2-oxoethyl}-2-hydroxy-3,3-dimethylbutanamide], 104.8 °C; under `CCC[C@H](NC(=O)[C@@H](O)C(C)(C)C)C(=O)Nc1ncc(-c2ccccc2COc2cccc(Cl)c2Cl)s1` [compound 73, (2S)—N-(5-{2-[(2,3-dichlorophenoxy)methyl]phenyl}-1,3-thiazol-2-yl)-2-{[(2S)-2-hydroxy-3,3-dimethylbutanoyl]amino}pentanamide], 71.1 °C.
`CCC[C@H](NC(=O)[C@@H](O)C(C)(C)C)C(=O)Nc1ncc(-c2ccccc2COc2cccc(Cl)c2)s1` [compound 29, (2S)—N-(5-{2-[(3-chlorophenoxy)methyl]phenyl}-1,3-thiazol-2-yl)-2-{[(2S)-2-hydroxy-3,3-dimethylbutanoyl]amino}pentanamide] showed a melting point of 169 °C.
Compound `CCC[C@H](NC(=O)[C@@H](O)C(C)C)C(=O)Nc1ncc(-c2ccc(C)cc2COc2ccccc2)s1` [compound 65, (2S)-2-{[(2S)-2-hydroxy-3-methylbutanoyl]amino}-N-{5-[4-methyl-2-(phenoxymethyl)phenyl]-1,3-thiazol-2-yl}pentanamide] registered a melting point of 135.5 °C.
Turning to `C[C@H](NC(=O)[C@@H](O)C(C)(C)C)C(=O)Nc1ncc(-c2ccccc2COc2ccccc2)s1` [compound 58, (2S)-2-hydroxy-3,3-dimethyl-N-[(1S)-1-methyl-2-oxo-2-({5-[2-(phenoxymethyl)phenyl]-1,3-thiazol-2-yl}amino)ethyl]butanamide], the melting point was found to be 118.6 °C.
For `CCC[C@H](NC(=O)[C@@H](O)C(C)(C)C)C(=O)Nc1ncc(-c2ccccc2COc2cccc(C#N)c2)s1` [compound 61, (2S)—N-(5-{2-[(3-cyanophenoxy)methyl]phenyl}-1,3-thiazol-2-yl)-2-{[(2S)-2-hydroxy-3,3-dimethylbutanoyl]amino}pentanamide] the value was 162.6 °C.
For `CCC[C@H](NC(=O)[C@@H](O)C(C)(C)C)C(=O)Nc1ncc(-c2ccccc2COc2cc(OC)cc(OC)c2)s1` [compound 25, (2S)—N-(5-{2-[(3,5-dimethoxyphenoxy)methyl]-phenyl}-1,3-thiazol-2-yl)-2-{[(2S)-2-hydroxy-3,3-dimethylbutanoyl]amino}pentanamide] the value was 66.5 °C; for `CCC[C@H](NC(=O)[C@@H](O)C(C)(C)C)C(=O)Nc1ncc(-c2ccccc2COc2cccc(F)c2F)s1` [compound 74, (2S)—N-(5-{2-[(2,3-difluorophenoxy)methyl]phenyl}-1,3-thiazol-2-yl)-2-{[(2S)-2-hydroxy-3,3-dimethylbutanoyl]amino}pentanamide], 82 °C; for `CCC[C@H](NC(=O)[C@@H](O)C(C)(C)C)C(=O)Nc1ncc(-c2ccccc2COc2ccc(C)c(C)c2)s1` [compound 27, (2S)—N-(5-{2-[(3,4-dimethylphenoxy)methyl]phenyl}-1,3-thiazol-2-yl)-2-{[(2S)-2-hydroxy-3,3-dimethylbutanoyl]amino}pentanamide], 89 °C.
Under `CCC[C@H](NC(=O)[C@@H](O)C(C)(C)C)C(=O)Nc1ncc(-c2ccccc2COc2ccccc2CC)s1` [compound 20, (2S)—N-(5-{2-[(2-ethylphenoxy)methyl]phenyl}-1,3-thiazol-2-yl)-2-{[(2S)-2-hydroxy-3,3-dimethylbutanoyl]amino}pentanamide] stands 107 °C.
As for `CCC[C@H](NC(=O)[C@@H](O)C(C)(C)C)C(=O)Nc1ncc(-c2cc(F)ccc2COc2ccccc2)s1` [compound 54, (2S)—N-{5-[5-fluoro-2-(phenoxymethyl)phenyl]-1,3-thiazol-2-yl}-2-{[(2S)-2-hydroxy-3,3-dimethylbutanoyl]amino}pentanamide], the melting point worked out at 105.4 °C.
